Converted amounts (≈) assume the structure as drawn.
Legend:
HL60 AML cells = assay: cells; format: cell-based; settings: 96 hours; for IC50: Homo sapiens, HL-60, 96 h, read-out: IC50, HL60, AML, Table 13, free drug; for IC50, HL60, AML: Table 14, cOKT-9 conjugate
Method: (§1) In vitro assays. Cells cultured in log-phase growth were seeded for 24 h in 96-well plates containing 150 μL RPMI 1640 supplemented with 20% FBS. Serial dilutions of antibody-drug conjugates in cell culture media were prepared at 4× working concentrations; 50 μL of each dilution was added to the 96-well plates. Following addition of ADC, cells were incubated with test articles for 4 d at 37° C. After 96 h, growth inhibition was assessed by CellTiter-Glo™ (Promega, Madison, W1) and luminescence was measured on a plate reader. The IC50 value, determined in triplicate, is defined here as the concentration that results in a 50% reduction in cell growth relative to untreated controls.

HEL9217 AML cells = assay: In vitro cytotoxicity (CellTiter-Glo, 96 h); format: cell-based; settings: Homo sapiens, HEL 92.1.7, 96 h, read-out: IC50, HEL9217, MDR+ AML
HCT-116 CRC cells = format: cell-based; settings: Table 14; cOKT-9 conjugate, 96 hours
Method: as §1

L428 MDR+ HL cells = assay: In vitro cytotoxicity (CellTiter-Glo, 96 h); format: cell-based; settings: for IC50, L428, MDR+ HL: Table 14, cOKT-9 conjugate
[1] = tested on: co-culture of L540cy:U268Luc+ cells; assay: In vitro cytotoxicity, bystander co-culture; format: cell-based; settings: cAC10 conjugate obtained from compound 30; CD30+ and CD30- cells co-cultured
Method: as §1
The results of Table 2 and Table 3 indicate that potent and immunologically specific Ligand Drug Conjugates are obtained when a tubulysin is incorporated into such constructs as a quaternized drug unit and that such conjugates are active against multi-resistant cell lines. […] L540cy are CD30+ and U266 are CD30^−

KM-H2 HL cells = format: cell-based; settings: Table 14; cOKT-9 conjugate, 96 hours
[2] = tested on: L540cy Hodgkin lymphoma cells; assay: In vitro cytotoxicity (CellTiter-Glo, 96 h); format: cell-based; settings: for IC50, L540cy, HL: Table 14, cOKT-9 (anti-transferrin receptor) conjugate, DAR 8 (30) or 6.7 (192), 96 hours
786-O RCC cells = assay: In vitro cytotoxicity (CellTiter-Glo, 96 h); format: cell-based; settings: Homo sapiens, 786-0, 96 h, read-out: IC50, 786-O, MDR+ RCC
panel of cell lines = assay: In vitro cytotoxicity, statements across a panel of cell lines; format: cell-based; settings: cOKT-9 conjugates, cell lines of Table 14
Method: as §1

HCT-15 cells = assay: Intracellular drug release (LC-MS/MS, 24 hr); format: cell-based; settings: Table 12, free drug @ 50 nM
Method: (§2) Intracellular drug release. TFlα, L428, and HCT-15 cells were used for the study. Cells that had been cultured under normal conditions were harvested and washed into fresh medium at ˜5×10^5 cells/mL. For each treatment condition, 5-15×10^6 cells were plated in T25 or T150 flasks. cOKT9-5023 (8-drugs/Ab) was added at 1 μg/mL to cultures and they were incubated at 37° C., 5% CO2 for 24 hr. For suspension cells, a known volume of cell culture was harvested by centrifugation (500×g, 5 min, 4° C.), and an aliquot of the medium was removed and stored for mass spectral analysis (−20° C.). For adherent cells the medium was carefully removed (an aliquot stored for mass spectral analysis) and the cells lifted with trypsin-EDTA followed by centrifugation (500×g, 5 min, 4° C.) to collect the cell pellet. For both suspension and adherent cells, the harvested cell pellets were resuspended in ice cold PBS and an aliquot was removed for enumeration and determination of average cell diameters using a Vi-Cell XR2.03 cell viability analyzer (Beckman Coulter, Fullerton, CA). The remaining cell suspensions were pelleted (500×g, 5 min) and then washed once more with 1 mL of ice cold PBS. The resulting pellets were stored at −20° C.
(§3) Untreated samples were generated using untreated cell pellets and culture medium for use in calibration curves. Untreated cell pellets were spiked with 4 μL of 25× standard analyte. Both spiked and treated cell pellets were suspended by vortexing in 400 μL of MeOH containing internal standard and placed at −20° C. for 15 min. The samples were then centrifuged at 16,000×g and the supernatants were prepared for solid phase extraction. Untreated culture medium samples (0.5 mL) were spiked with 4 μL of 25× standard. Both spiked and treated culture media were mixed with 10 μL of internal standard and prepared for solid phase extraction. Samples were subjected to solid phase extraction and the recovered drug-containing solutions were dried and reconstituted for quantification by LC-MS/MS. To derive an equation for the quantitation of released drug in the experimental unknown samples, the peak area for each drug standard was divided by the peak area obtained for the internal standard. The resultant peak area ratios were plotted as a function of the standard spiked amounts and the data points were fitted to a curve using linear regression. The peak area ratios obtained for released drug to internal standard in the experimental samples were converted to drug amounts using the derived equation.
(§4) MDR cell lines that are CD71^+ are exposed to an LDC (1 μg/mL) comprised of and antibody targeting CD71 (cOKT9) and a quaternized MDR inhibitor (Tariquidar™). The LDC composition designated as cOKT9-gluc4-T was obtained from compound 36 of Scheme 6 and predominately contains LDCs having 8 D^+ units wherein D^+ is quaternized Tariquidar. The predominate LDC of the composition, after controlled hydrolysis of the succinimide ring system is represented by the structure of: […]

L428 cells = assay: Intracellular drug release (LC-MS/MS, 24 hr); format: cell-based; settings: Table 12, free drug @ 50 nM
Method: as §2, §3, §4

TF1a cells = assay: Intracellular drug release (LC-MS/MS, 24 hr); format: cell-based; settings: Table 12
Method: as §2, §3, §4

[3] = J. Med. Chem., 2009, 52, 238-240; cited from earlier work
Ramos NHL cells = assay: In vitro cytotoxicity (CellTiter-Glo, 96 h); format: cell-based; settings: Table 4
Method: as §1

Karpas299 ALCL cells = assay: In vitro cytotoxicity (CellTiter-Glo, 96 h); format: cell-based; settings: Table 4
Method: as §1

RL cells = assay: In vitro cytotoxicity (CellTiter-Glo, 96 h); format: cell-based; settings: Table 4
Method: as §1

[4] = quaternized auristatin E ADC, 8 D+/Ab, CD30-, CD19+
[5] = Table 4, quaternized auristatin E ADC, 8 D+/Ab

Molecule `CC[C@H](C)[C@H](NC(=O)[C@H]1CCCCN1C)C(=O)N(C)[C@H](C[C@@H](OC(C)=O)c1nc(C(=O)N[C@@H](Cc2ccccc2)C[C@H](C)C(=O)O)cs1)C(C)C` [Compound 26, Tubulysin M, reference compound] has an IC50 (HL60 AML cells) of 0.2 nM and an IC50 (HEL9217 AML cells) of 0.4 nM.

In the case of `CC[C@H](C)[C@H](NC(=O)[C@H]1CCCC[N+]1(C)Cc1ccc(NC(=O)[C@H](C)NC(=O)[C@@H](NC(=O)CCCCCN2C(=O)C=CC2=O)C(C)C)cc1)C(=O)N(C)[C@H](C[C@@H](OC(C)=O)c1nc(C(=O)N[C@@H](Cc2ccccc2)C[C@H](C)C(=O)O)cs1)C(C)C` (stereo partly drawn) [Compound 30, (2R)-2-(((2S,3S)-1-(((1R,3R)-1-acetoxy-1-(4-(((2R,4S)-4-carboxy-1-phenylpentan-2-yl)carbamoyl)thiazol-2-yl)-4-methylpentan-3-yl)(methyl)amino)-3-methyl-1-oxopentan-2-yl)carbamoyl)-1-(4-((S)-2-((S)-2-(6-(2,5-dioxo-2,5-dihydro-1H-pyrrol-1-yl)hexanamido)-3-methylbutanamido)propanamido)benzyl)-1-methylpiperidin-1-ium], the “IC50, HCT-116, CRC” value (HCT-116 CRC cells) is reported as 0.001 µg/mL, the “IC50, L428, MDR+ HL” value (L428 MDR+ HL cells; 96 hours) is reported as 0.0004 µg/mL and the “IC50 against a co-culture of L540cy:U268Luc+ cells” value [1] is reported as 0.006 µg/mL. The “IC50, KM-H2 MDR+ HL” value (KM-H2 HL cells) was under 0.00026 µg/mL, the “IC50, HL60, AML” value (HL60 AML cells) was 0.006 µg/mL and the “IC50, L540cy, HL” value [2] was 0.001 µg/mL.

Work on `CC[C@H](C)[C@H](NC(=O)[C@H]1CCCCN1C)C(=O)N(C)[C@H](C[C@@H](OC(C)=O)c1nc(C(=O)N[C@@H](Cc2ccccc2)C[C@H](C)C(=O)NN)cs1)C(C)C` [Compound 190, (1R,3R)-3-((2S,3S)—N,3-dimethyl-2-((R)-1-methylpiperidine-2-carboxamido)pentanamido)-1-(4-(((2R,4S)-5-hydrazinyl-4-methyl-5-oxo-1-phenylpentan-2-yl)carbamoyl)thiazol-2-yl)-4-methylpentyl acetate] yielded an IC50 (L428 MDR+ HL cells; Homo sapiens, L-428, 96 h, read-out: IC50, L428, MDR+ HL, Table 13, free drug, 96 hours) of 1 nM, an IC50 (786-O RCC cells) of 4 nM and an IC50 (HL60 AML cells) of 0.8 nM. It also gave an IC50 (HEL9217 AML cells) of 4 nM.

With `CC[C@H](C)[C@H](NC(=O)[C@H]1CCCCN1C)C(=O)N(C)[C@H](C[C@@H](OC(C)=O)c1nc(C(=O)N[C@@H](Cc2ccccc2)C[C@H](C)C(=O)NNC(=O)OCc2ccc(NC(=O)[C@H](CCCNC(N)=O)NC(=O)[C@@H](NC(=O)CCCCCN3C(=O)C=CC3=O)C(C)C)cc2)cs1)C(C)C` [Compound 192, 4-((S)-2-((S)-2-(6-(2,5-dioxo-2,5-dihydro-1H-pyrrol-1-yl)hexanamido)-3-methylbutanamido)-5-ureidopentanamido)benzyl 2-((2S,4R)-4-(2-((1R,3R)-1-acetoxy-3-((2S,3S)—N,3-dimethyl-2-((R)-1-methylpiperidine-2-carboxamido)pentanamido)-4-methylpentyl)thiazole-4-carboxamido)-2-methyl-5-phenylpentanoyl)hydrazinecarboxylate] the “IC50, HCT-116, CRC” value (HCT-116 CRC cells) was 0.302 µg/mL (≈ 0.225 µM), the “IC50, L428, MDR+ HL” value (L428 MDR+ HL cells; 96 hours) was 0.284 µg/mL (≈ 0.212 µM) and the “IC50, KM-H2 MDR+ HL” value (KM-H2 HL cells) was 0.056 µg/mL (≈ 0.0418 µM). The “IC50, HL60, AML” value (HL60 AML cells) was 0.085 µg/mL (≈ 0.0634 µM), the “less potent than the quaternary amine-linked TubM (30) conjugate” value (panel of cell lines) was 1-3 logs and the “IC50, L540cy, HL” value [2] was 0.117 µg/mL (≈ 0.0873 µM).

In the case of `COc1cc2c(cc1OC)CN(CCc1ccc(NC(=O)c3cc(OC)c(OC)cc3NC(=O)c3cnc4ccccc4c3)cc1)CC2` [Free drug, Tariquidar], the “Intracellular drug, HCT-15” value (HCT-15 cells) is reported as 6.649 µM, the “extracellular drug, HCT-15” value (HCT-15 cells; parenthetic value) is reported as 44.3 nM and the “Intracellular drug, L428” value (L428 cells) is reported as 4.846 µM. For the same molecule, the “extracellular drug, L428” value (L428 cells; parenthetic value) was 47.0 nM, the “Intracellular drug, TF1a” value (TF1a cells; free drug (Tariquidar) @ 50 nM) was 3.575 µM and the “extracellular drug, TF1a” value (TF1a cells; free drug @ 50 nM, parenthetic: free drug that remains outside the cell) was 43.8 nM.

For `CC[C@H](C)[C@H](NC(=O)[C@H]1CCCCN1C)C(=O)N[C@H](C[C@@H](O)c1nc(C(=O)N[C@@H](Cc2ccccc2)C[C@H](C)C(=O)O)cs1)C(C)C` [tubulysin V, Tubulysin V], the “loss of potency on deacetylation of tubulysin U” value [3] is listed as over 100 fold.

B1: hBU12-14: "vcPAB4-AE ... obtained from compound 14 of Scheme 2 and ... monoclonal antibody hBU12, which targets C19+ cells" (conjugate, chains of the INN, looked up)
VH: QVQLQESGPGLVKPSQTLSLTCTVSGGSISTSGMGVGWIRQHPGKGLEWIGHIWWDDDKRYNPALKSRVTISVDTSKNQFSLKLSSVTAADTAVYYCARMELWSYYFDYWGQGTLVTVSS
VL: EIVLTQSPATLSLSPGERATLSCSASSSVSYMHWYQQKPGQAPRLLIYDTSKLASGIPARFSGSGSGTDFTLTISSLEPEDVAVYYCFQGSVYPFTFGQGTKLEIK
modifications: vcPAB4-auristatin E drug-linker 14
For B1, the “viable cells remaining at the bottom of the dose-response curve, Ramos” value (Ramos NHL cells; parenthetic value) was 0%, the “IC50 for cell growth inhibition, Ramos” value (Ramos NHL cells; [4]) was 0.0007 µg/mL and the “viable cells remaining at the bottom of the dose-response curve, Karpas-299” value (Karpas299 ALCL cells; parenthetic value) was 10%. For the same molecule, the “IC50 for cell growth inhibition, Karpas-299” value (Karpas299 ALCL cells; quaternized auristatin E ADC, 8 D+/Ab) was 3.903 µg/mL, the “viable cells remaining at the bottom of the dose-response curve, RL” value (RL cells; parenthetic value) was 21% and the “IC50 for cell growth inhibition, RL” value (RL cells; [4]) was 2.11 µg/mL. The “viable cells remaining at the bottom of the dose-response curve, L428” value (L428 MDR+ HL cells; Table 4, parenthetic value) was 41%, the “IC50 for cell growth inhibition, L428” value (L428 MDR+ HL cells; [5]) was 8.614 µg/mL and the “viable cells remaining at the bottom of the dose-response curve, L540cy parental” value ([2]; Table 4, parenthetic value) was 44%. The “IC50 for cell growth inhibition, L540cy parental” value [2, 5] was 5.08 µg/mL.
